In US12502344B2, “Deodorants comprising alkylamido and alkenylamido-morpholinium compositions” (Colonial Chemical, Inc., priority 2021, dated 2025):

Assay: Deodorization evaluation, forced-preference panel test of acetic acid malodor on cotton balls
Settings: approx. 50 mg acetic acid on cotton ball in closed 32 oz jar; sprayed with 0.25 g, 0.5 g, 2.0 g and 5 g of approx. 0.8% by weight active in water; equilibrated 2 hrs; ten panelists; FIG. 1
Protocol: Deodorization Evaluations. Forced Preference Tests.
In the deodorization studies, two substances were tested for their ability to deodorize malodor: 1) Soyaethyl Morpholinium Ethosulfate (U.S. Pat. No. 4,851,214); and 2) Soyamidopropyl Ethylmorpholinium Ethosulfate (from this invention). These two products are Products 1 and 2, respectively, in FIG. 1. Both materials contain a quaternized morpholinium functionality within the deodorant molecule. All test formulations were approximately 0.8% by weight of active deodorizer/sequestrant in water.
Both products were tested as follows: Approximately 50 milligrams of acetic acid were placed on cotton balls (approximately 0.63 g in weight). The cotton balls were placed in 32 oz plastic jars, one per jar, and the lids were screwed on. After equilibrating for 4 hours the cotton balls were sprayed with predetermined amounts (0.25 g, 0.5 g, 2.0 g and 5 g) of deodorizing spray formulations and placed back in closed containers where they equilibrated for 2 hrs. In forced-preference testing, ten panelists were asked to open each jar and rate each on a scale from 1 to 10 with 10 being the highest level of acetic acid detected. The results of those ratings appear in FIG. 1 where the ratings given for each test substance is graphed versus the weight in grams of deodorizing formulations that had been applied to each cotton ball. […]

Row | Compound | perceivable malodor (odor rating on a scale from 1 to 10, 10 being the highest level of acetic acid detected)
1 | CCCCCCCC/C=C\CCCCCCCC[N+]1(CC)CCOCC1 [Product 1, Soyaethyl Morpholinium Ethosulfate] | reduced the perceivable malodor in a concentration-dependent fashion
2 | Soyamidopropyl Ethylmorpholinium Ethosulfate [Product 2] | reduced the perceivable malodor in a concentration-dependent fashion
